Laboratory results taken from patent publication US9714213B2, “4-aminomethylbenzoic acid derivative” (TOA EIYO LTD., priority 2013, dated 2017).
Read-outs that look alike come from different tables or passages of the source.

How the values were obtained:
human sGC = target: T1, human sGC (Homo sapiens, UniProt Q02153); experiment: Maximum effect of sGC activation (intracellular Ca2+, Fura2-AM) in CHO-K1 cells stably expressing human sGC and mouse CNGA2; assay type: cell-based; details: increase rate of sGC activity vs DMSO control, test compound 10 μmol/L
T1 construct: expressed in transfected cells; host or cells: CHO-K1 (Chinese hamster ovary) cells
T1 sequence (Q02153 1-619): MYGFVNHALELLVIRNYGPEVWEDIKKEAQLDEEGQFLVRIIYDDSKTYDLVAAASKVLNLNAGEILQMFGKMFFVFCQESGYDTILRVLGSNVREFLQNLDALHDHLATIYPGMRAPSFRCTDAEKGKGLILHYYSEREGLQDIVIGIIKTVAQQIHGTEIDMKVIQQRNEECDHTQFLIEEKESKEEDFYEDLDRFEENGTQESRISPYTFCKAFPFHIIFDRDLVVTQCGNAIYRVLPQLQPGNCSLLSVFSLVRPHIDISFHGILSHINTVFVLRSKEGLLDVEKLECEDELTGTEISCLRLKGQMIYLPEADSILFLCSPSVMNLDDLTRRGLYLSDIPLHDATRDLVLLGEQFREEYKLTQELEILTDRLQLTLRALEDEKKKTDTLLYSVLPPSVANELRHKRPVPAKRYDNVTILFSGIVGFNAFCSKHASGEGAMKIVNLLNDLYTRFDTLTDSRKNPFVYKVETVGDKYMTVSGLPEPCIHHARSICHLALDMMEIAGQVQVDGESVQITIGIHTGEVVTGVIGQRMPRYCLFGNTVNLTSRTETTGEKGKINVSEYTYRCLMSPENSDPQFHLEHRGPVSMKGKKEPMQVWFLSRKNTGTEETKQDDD
T1 sequence (Q02108 1-690 partner): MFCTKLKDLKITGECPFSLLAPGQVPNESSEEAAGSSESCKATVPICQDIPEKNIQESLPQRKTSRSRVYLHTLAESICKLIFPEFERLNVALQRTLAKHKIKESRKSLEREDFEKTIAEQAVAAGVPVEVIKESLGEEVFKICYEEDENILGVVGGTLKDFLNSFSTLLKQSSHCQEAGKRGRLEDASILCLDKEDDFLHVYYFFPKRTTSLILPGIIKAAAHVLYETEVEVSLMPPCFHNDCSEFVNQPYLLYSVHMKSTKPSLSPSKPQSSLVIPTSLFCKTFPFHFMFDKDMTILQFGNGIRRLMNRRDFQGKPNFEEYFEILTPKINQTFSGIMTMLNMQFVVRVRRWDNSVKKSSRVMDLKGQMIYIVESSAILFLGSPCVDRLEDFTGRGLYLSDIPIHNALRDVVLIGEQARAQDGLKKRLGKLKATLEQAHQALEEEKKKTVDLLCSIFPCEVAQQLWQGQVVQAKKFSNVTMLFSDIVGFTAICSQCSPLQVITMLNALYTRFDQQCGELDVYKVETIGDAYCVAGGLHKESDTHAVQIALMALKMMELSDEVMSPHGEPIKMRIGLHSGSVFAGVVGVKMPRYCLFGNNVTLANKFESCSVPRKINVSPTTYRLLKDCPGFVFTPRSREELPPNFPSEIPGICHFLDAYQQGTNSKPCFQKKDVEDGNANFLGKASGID
Description: For the assay, chinese hamster ovary cells (CHO-K1 cells) stably expressing both α and β subunits of human sGC and mouse cyclic nucleotide-gated channel (CNGA2) were used.
The CHO-K1 cells stably expressing human sGC and mouse CNGA2 was cultured at 37° C. on F-12 medium containing 10% (v/v) fetal bovine serum (FBS), penicillin (100 U/mL), streptomycin (100 μg/mL), G418 (250 μg/mL) and Zeocin (250 μg/mL). The cells were suspended in a culture medium, seeded on a 96 well plate, and then cultured at 37° C. for 24 hours. The cells were washed with Assay buffer 1 (140 mmol/L sodium chloride, 5 mmol/L potassium chloride, 0.5 mmol/L magnesium chloride, 0.01 mmol/L calcium chloride, 10 mmol/L glucose, 0.4 mmol/L magnesium sulfate, 10 mmol/L 4-(2-hydroxyethyl)piperazin-1-ylethanesulfonic acid and 125 μmol/L sulfinpyrazone, pH 7.4), and then added a solution containing Fura2-AM, a fluorescent Ca^2+ indicator, in Assay buffer 1 at […] concentration thereto as an indicator solution, and cultured at 37° C. for 60 minutes. The culture medium was removed, and the cells were washed with Assay buffer 1, and then added a solution containing the test compound thereto, and cultured at room temperature for 10 minutes. A plate was placed onto a fluorometer (FlexStation II, Molecular Devices), and the intracellular calcium concentration was determined as the ratio of fluorescent intensity, obtained from measurement using 340 nm and 380 nm as excitation wavelength and 510 nm as detection wavelength.
The solution of the test compound was prepared by dissolving each test compound in DMSO at 10 mmol/L, and then diluting the solution for the test concentration at 10 μmol/L with Assay buffer (140 mmol/L sodium chloride, 5 mmol/L potassium chloride, 0.5 mmol/L magnesium chloride, 1 mmol/L calcium chloride, 10 mmol/L glucose, 0.4 mmol/L magnesium sulfate, 10 mmol/L 4-(2-hydroxyethyl)piperazin-1-ylethanesulfonic acid, […] sulfinpyrazone, 100 μmol/L isobutyl methyl xanthine, and 10 μmol/L 1H-[1,2,4]-oxadiazol[4,3-a]quinoxaline-1-one (hereinafter, ODQ), pH 7.4). The evaluation in the absence of ODQ was performed similarly, except that ODQ was not added to Assay buffer 2. As a control solution, a DMSO solution was used instead of the test compound solution.
The activity of the test compound defined as the increase rate of the sGC activity (%) at the time of adding the solution of the test compound with respect to the sGC activity at the time of adding the control solution, was calculated by dividing the fluorescent intensity ratio at the time of adding the test compound by the fluorescent intensity ratio of the control solution, and subtracting the sGC activity at the time of adding the control solution (100%).
If sGC is activated in this assay, intracellular cGMP concentration increases and accordingly intracellular Ca^2+ concentration is increased by opening of CNGA2. Accordingly, sGC activation can be measured as the change of Ca^2+ concentration in the cell. […] Accordingly, it is possible to evaluate maximum sGC activation effect including heme-dependent activation in the absence of ODQ, and also possible to evaluate heme independent sGC activation effect in the presence of ODQ.

rat ventral aorta = experiment: Blood vessel relaxation activity, phenylephrine-contracted rat ventral aorta ring specimen; details: relaxation of 1 μmol/L phenylephrine contraction; EC50 without ODQ / EC50 with 10 μmol/L ODQ
Description: A representative compound of the present invention was assayed for blood vessel relaxation activity according to the Test Example described below. In the assay, a rat (male, SD) was phlebotomized from the upper part of the heart under pentobarbital (30 mg/kg) anesthesia, and the ventral aorta was extracted. The connective tissue adhering around the blood vessel in the ventral aorta was removed in an ice-cooled Krebs-Henseleit solution (KH solution) (118 mmol/L sodium chloride, 4.7 mmol/L potassium chloride, 1.2 mmol/L magnesium sulfate, 1.2 mmol/L potassium dihydrogenphosphate, 25 mmol/L sodium hydrogen carbonate, 2.5 mmol/L calcium chloride and 10 mmol/L glucose, pH 7.4). Then, a ring specimen of 2 mm length was prepared, and fixed in 5 mL organ bath filled with the KH solution. The KH solution was maintained at 37° C., and a mixed gas of 95% O2 and 5% CO2 was ventilated. The specimen was stabilized with 1 g of the resting tension for 1 hour. In the meantime, the KH solution was exchanged twice. The tension of the specimen was recorded with a multichannel recorder through a pickup and an amplifier. After stabilization of the specimen, contraction was induced with 1 μmol/L phenylephrine (Phe), and cumulative administration of each compound (0.001, 0.01, 0.03, 0.1, 0.3, 1, 3, 10, 30, 100, 1000, 10000 nmol/L) was carried out. In the case of evaluation at the time of containing ODQ, 10 μmol/L ODQ was added 10 minutes before administration of Phe, and similar evaluation was performed.
EC50 value was calculated by Four-parameter Logistic Model with Assay Explorer (Accelrys, Inc.). Meanwhile, the solution of the test compound was prepared by dissolving the compound in DMSO to prepare solutions having the concentration of each test compound 1000 times higher than the final concentration.

[1] = 10 μmol/L ODQ present, read-out: Emax (%) ODQ+ (Heme-independent)
[2] = absence of ODQ, read-out: Emax (%) ODQ− (Heme-dependent)

Structure (SMILES): O=C(O)CCCCN(Cc1ccc(C(=O)O)cc1)C[C@H](OCc1ccc(CCc2ccc(Cl)cc2)cc1)c1ccccc1 [Example 40, (−)-4-{[N-(4-Carboxybutyl)-N-[(2R)-2-[4-[2-(4-chlorophenyl)ethyl]benzyloxy]-2-phenylethyl]amino]methyl}benzoic acid]
- Emax at 10 µM (human sGC; [1]): 120%
- Emax at 10 µM (human sGC; [2]): 127%

Structure (SMILES): O=C(O)CCCCN(CCc1ccccc1OCc1ccc(CCc2ccccc2)cc1)Cc1ccc(C(=O)O)cc1 [Cinaciguat, reference compound]
- EC50 Ratio (ODQ−/ODQ+) (rat ventral aorta): 12.4

Structure (SMILES): CC(C)(C)c1cc(CO[C@@H](CN(CCCCC(=O)O)Cc2ccc(C(=O)O)cc2)c2ccccc2)cc(C(C)(C)C)c1 [Example 46, (−)-4-{[N-(4-Carboxybutyl)-N-[(2R)-2-(3,5-di-tert-butylbenzyloxy)-2-phenylethyl]amino]methyl}benzoic acid]
- Emax at 10 µM (human sGC; [1]): 108%
- Emax at 10 µM (human sGC; [2]): 161%

Structure (SMILES): O=C(O)CCCCN(Cc1ccc(C(=O)O)cc1)C[C@H](OCc1ccc(CCc2ccccc2)cc1)c1ccccc1 [Example 32, (−)-4-{[N-(4-Carboxybutyl)-N-[(2R)-2-[4-(2-phenylethyl)benzyloxy]-2-phenylethyl]amino]methyl}benzoic acid]
- EC50 Ratio (ODQ−/ODQ+) (rat ventral aorta): 7.31
- Emax at 10 µM (human sGC; [1]): 87.7%
- Emax at 10 µM (human sGC; [2]): 128%

Structure (SMILES): O=C(O)CCCCN(Cc1ccc(C(=O)O)cc1)C[C@H](OCc1ccc(CCC2CCCC2)cc1)c1ccccc1 [Example 39, (−)-4-{[N-(4-Carboxybutyl)-N-[(2R)-2-[4-(2-cyclopentylethyl)benzyloxy]-2-phenylethyl]amino]methyl}benzoic acid]
- Emax at 10 µM (human sGC; [1]): 142%
- Emax at 10 µM (human sGC; [2]): 148%

Structure (SMILES): CC(C)(CCN(Cc1ccc(C(=O)O)cc1)CC(OCc1ccc(CCc2ccccc2)cc1)c1ccccc1)CC(=O)O (stereo not shown) [Example 18]
- Emax at 10 µM (human sGC; [1]): 129%
- Emax at 10 µM (human sGC; [2]): 96.2%

Structure (SMILES): O=C(O)CCCCN(Cc1ccc(C(=O)O)cc1)CC(OCc1ccc(CCc2ccccc2)s1)c1cccc(Cl)c1 (stereo not shown) [Example 24, 4-{[N-(4-Carboxybutyl)-N-[2-(3-chlorophenyl)-2-[5-(2-phenylethyl)thiophen-2-ylmethoxy]ethyl]amino]methyl}benzoic acid]
- Emax at 10 µM (human sGC; [1]): 132%
- Emax at 10 µM (human sGC; [2]): 150%

Structure (SMILES): O=C(O)CCCCN(Cc1ccc(C(=O)O)cc1)C[C@H](OCc1ccc(CCc2ccccc2)s1)c1ccccc1 [Example 43, (−)-4-{[N-(4-Carboxybutyl)-N-[(2R)-2-[5-(2-phenylethyl)thiophen-2-ylmethoxy]-2-phenylethyl]amino]methyl}benzoic acid]
- Emax at 10 µM (human sGC; [1]): 124%
- Emax at 10 µM (human sGC; [2]): 108%

Structure (SMILES): O=C(O)CCCCN(Cc1ccc(C(=O)O)cc1)CC(OCc1ccc(CCc2ccccc2)cc1)c1cccc(Cl)c1 (stereo not shown) [Example 22, 4-{[N-(4-Carboxybutyl)-N-[2-(3-chlorophenyl)-2-[4-(2-phenylethyl)benzyloxy]ethyl]amino]methyl}benzoic acid]
- Emax at 10 µM (human sGC; [1]): 115%
- Emax at 10 µM (human sGC; [2]): 106%

Structure (SMILES): O=C(O)CCCCN(Cc1ccc(C(=O)O)cc1)CC(OCc1cccc(CCc2ccccc2)c1)c1ccccc1 (stereo not shown) [Example 60, 4-{[N-(4-Carboxybutyl)-N-[2-[3-(2-phenylethyl)benzyloxy]-2-phenylethyl]amino]methyl}benzoic acid]
- Emax at 10 µM (human sGC; [1]): 88.9%
- Emax at 10 µM (human sGC; [2]): 110%

Structure (SMILES): O=C(O)CCCCCN(Cc1ccc(C(=O)O)cc1)CC(OCc1ccc(CCc2ccccc2)cc1)c1ccccc1 (stereo not shown) [Example 15, 4-{[N-(5-Carboxypentyl)-N-[2-[4-(2-phenylethyl)benzyloxy]-2-phenylethyl]amino]methyl}benzoic acid]
- Emax at 10 µM (human sGC; [1]): 87.7%
- Emax at 10 µM (human sGC; [2]): 89.1%

Structure (SMILES): N#Cc1cccc([C@H](CN(CCCCC(=O)O)Cc2ccc(C(=O)O)cc2)OCc2ccc(CCc3ccccc3)cc2)c1 [Example 30, (−)-4-{[N-(4-Carboxybutyl)-N-[(2R)-2-(3-cyanophenyl)-2-[4-(2-phenylethyl)benzyloxy]ethyl]amino]methyl}benzoic acid]
- Emax at 10 µM (human sGC; [1]): 129%
- Emax at 10 µM (human sGC; [2]): 83.4%

Structure (SMILES): CC(C)(C)c1cccc(COC(CN(CCCCC(=O)O)Cc2ccc(C(=O)O)cc2)c2ccccc2)c1 (stereo not shown) [Example 10, 4-{[N-[2-(3-tert-Butylbenzyloxy)-2-phenylethyl]-N-(4-carboxybutyl)amino]methyl}benzoic acid]
- Emax at 10 µM (human sGC; [1]): 141%
- Emax at 10 µM (human sGC; [2]): 103%

Structure (SMILES): CC(C)(C)c1cccc(CO[C@@H](CN(CCCCC(=O)O)Cc2ccc(C(=O)O)cc2)c2cccc(Cl)c2)c1 [Example 34, (−)-4-{[N-[(2R)-2-(3-tert-Butylbenzyloxy)-2-(3-chlorophenyl)ethyl]-N-(4-carboxybutyl)amino]methyl}benzoic acid]
- Emax at 10 µM (human sGC; [1]): 125%
- Emax at 10 µM (human sGC; [2]): 82.3%
